Test results: PMC8493801, “Exploring the Monoterpene Indole Alkaloid Scaffold for Reversing P-Glycoprotein-Mediated Multidrug Resistance in Cancer” (Pharmaceuticals, 2021)

Test system: human ABCB1-gene transfected L5178Y subline (MDR)
Experiment: not given
Conditions: not given

SMILES	IC50 [µM]
CCC1CN(C)C2Cc3c([nH]c4ccccc34)C(=NN=Cc3ccc4ccccc4c3)CC1C2C(=O)OC (stereo not drawn) [Compound 18, 3-[(2″-naphthalenylmethylene)hydrazineylidene]dregamine]	9.58 ± 0.74
CCC1CN(C)C2Cc3c([nH]c4ccccc34)C(=NN=Cc3cc4ccccc4[nH]3)CC1C2C(=O)OC (stereo not drawn) [Compound 20, 3-[((1H-indol-2-yl)methylene)hydrazineylidene]dregamine]	8.73 ± 0.53
CCC1CN(C)C2Cc3c([nH]c4ccccc34)C(=NNC(=O)Nc3ccc(Br)cc3)CC1C2C(=O)OC (stereo not drawn) [Compound 29, 3-[2″-((4‴-bromophenyl)carbamoyl)hydrazineylidene]dregamine]	7.4 ± 0.2

Same assay, conditions: RR ≤ 0.5 means CS effect

SMILES	RR (relative resistance ratio) = IC50MDR/IC50PAR
CCC1CN(C)C2Cc3c([nH]c4ccccc34)C(=NN=Cc3ccc4ccccc4c3)CC1C2C(=O)OC (stereo not drawn) [Compound 18, 3-[(2″-naphthalenylmethylene)hydrazineylidene]dregamine]	0.85
CCC1CN(C)C2Cc3c([nH]c4ccccc34)C(=NN=Cc3cc4ccccc4[nH]3)CC1C2C(=O)OC (stereo not drawn) [Compound 20, 3-[((1H-indol-2-yl)methylene)hydrazineylidene]dregamine]	1.00
CCC1CN(C)C2Cc3c([nH]c4ccccc34)C(=NNC(=O)Nc3ccc(Br)cc3)CC1C2C(=O)OC (stereo not drawn) [Compound 29, 3-[2″-((4‴-bromophenyl)carbamoyl)hydrazineylidene]dregamine]	1.13

Test system: mouse embryonic fibroblasts (NIH/3T3)
Experiment: MTT antiproliferative assay, non-cancer cells
Type: cell-based
Conditions: IC50 NIH/3T3 / IC50 MDR
Procedure: (§1) Non-cancer mouse embryonic fibroblasts (NIH/3T3) were also used.
In addition, the antiproliferative activity of the compounds was also evaluated on non-cancerous mouse embryonic fibroblast cells (NIH/3T3), whose values were compared with those of PAR and MDR cells by evaluation of the selective index (SI) values. […] The highest selective index values (SIC/A = 9.39; SIC/B = 10.79) were found for the derivative bearing the trimethoxyphenyl substituent (17).
(§2) L5178Y mouse T-lymphoma cells (ECACC catalog no. 87111908, US FDA, Silver Spring, MD, USA) were transfected with the pHa MDR1/A retrovirus as previously reported. The ABCB1 (P-gp) overexpressing cells were selected by culturing the infected cells with 60 ng/mL of colchicine (Sigma-Aldrich Chemie GmbH, Steinheim, Germany) to preserve the MDR phenotype. L5178Y (parental, PAR) mouse T-cell lymphoma cells and the human ABCB1-transfected subline were cultured in McCoy’s 5A supplemented with 10% heat-inactivated horse serum, 100 U/L L-glutamine, and 100 mg/L penicillin-streptomycin mixture, all obtained from Sigma-Aldrich. The mouse embryonic fibroblast (NIH 3T3) cell line was purchased from ATCC (CRL-1658) and was cultured in DMEM medium supplemented with 10% fetal bovine serum. These adherent cells were detached using 0.25% trypsin and 0.02% EDTA for 5 min at 37 °C. Before the antiproliferative assay using NIH 3T3 cell line, the cells were seeded in untreated 96-well flat bottomed microtiter plates, following a 4 h incubation period in a humidified atmosphere (5% CO2, 95% air) at 37 °C.

SMILES	SI C/B (Selectivity Index)
CCC1CN(C)C2Cc3c([nH]c4ccccc34)C(=NN=Cc3ccc4ccccc4c3)CC1C2C(=O)OC (stereo not drawn) [Compound 18, 3-[(2″-naphthalenylmethylene)hydrazineylidene]dregamine]	1.22
CCC1CN(C)C2Cc3c([nH]c4ccccc34)C(=NN=Cc3cc4ccccc4[nH]3)CC1C2C(=O)OC (stereo not drawn) [Compound 20, 3-[((1H-indol-2-yl)methylene)hydrazineylidene]dregamine]	1.57
CCC1CN(C)C2Cc3c([nH]c4ccccc34)C(=NNC(=O)Nc3ccc(Br)cc3)CC1C2C(=O)OC (stereo not drawn) [Compound 29, 3-[2″-((4‴-bromophenyl)carbamoyl)hydrazineylidene]dregamine]	1.76

Same assay, conditions: IC50 NIH/3T3 / IC50 PAR

SMILES	SI C/A (Selectivity Index)
CCC1CN(C)C2Cc3c([nH]c4ccccc34)C(=NN=Cc3ccc4ccccc4c3)CC1C2C(=O)OC (stereo not drawn) [Compound 18, 3-[(2″-naphthalenylmethylene)hydrazineylidene]dregamine]	1.04
CCC1CN(C)C2Cc3c([nH]c4ccccc34)C(=NN=Cc3cc4ccccc4[nH]3)CC1C2C(=O)OC (stereo not drawn) [Compound 20, 3-[((1H-indol-2-yl)methylene)hydrazineylidene]dregamine]	1.58
CCC1CN(C)C2Cc3c([nH]c4ccccc34)C(=NNC(=O)Nc3ccc(Br)cc3)CC1C2C(=O)OC (stereo not drawn) [Compound 29, 3-[2″-((4‴-bromophenyl)carbamoyl)hydrazineylidene]dregamine]	1.99

Same assay, conditions: NIH3T3; non-cancer mouse embryonic fibroblasts, MTT; read-out: IC50 NIH/3T3 (C)

SMILES	IC50 [µM]
CCC1CN(C)C2Cc3c([nH]c4ccccc34)C(=NN=Cc3ccc4ccccc4c3)CC1C2C(=O)OC (stereo not drawn) [Compound 18, 3-[(2″-naphthalenylmethylene)hydrazineylidene]dregamine]	11.7 ± 1.53
CCC1CN(C)C2Cc3c([nH]c4ccccc34)C(=NN=Cc3cc4ccccc4[nH]3)CC1C2C(=O)OC (stereo not drawn) [Compound 20, 3-[((1H-indol-2-yl)methylene)hydrazineylidene]dregamine]	13.8 ± 0.69
CCC1CN(C)C2Cc3c([nH]c4ccccc34)C(=NNC(=O)Nc3ccc(Br)cc3)CC1C2C(=O)OC (stereo not drawn) [Compound 29, 3-[2″-((4‴-bromophenyl)carbamoyl)hydrazineylidene]dregamine]	13 ± 0.4

Target: T1, recombinant human P-gp membranes (Homo sapiens, UniProt P08183)
T1 construct: purchased Promega
T1 sequence (P08183 whole entry): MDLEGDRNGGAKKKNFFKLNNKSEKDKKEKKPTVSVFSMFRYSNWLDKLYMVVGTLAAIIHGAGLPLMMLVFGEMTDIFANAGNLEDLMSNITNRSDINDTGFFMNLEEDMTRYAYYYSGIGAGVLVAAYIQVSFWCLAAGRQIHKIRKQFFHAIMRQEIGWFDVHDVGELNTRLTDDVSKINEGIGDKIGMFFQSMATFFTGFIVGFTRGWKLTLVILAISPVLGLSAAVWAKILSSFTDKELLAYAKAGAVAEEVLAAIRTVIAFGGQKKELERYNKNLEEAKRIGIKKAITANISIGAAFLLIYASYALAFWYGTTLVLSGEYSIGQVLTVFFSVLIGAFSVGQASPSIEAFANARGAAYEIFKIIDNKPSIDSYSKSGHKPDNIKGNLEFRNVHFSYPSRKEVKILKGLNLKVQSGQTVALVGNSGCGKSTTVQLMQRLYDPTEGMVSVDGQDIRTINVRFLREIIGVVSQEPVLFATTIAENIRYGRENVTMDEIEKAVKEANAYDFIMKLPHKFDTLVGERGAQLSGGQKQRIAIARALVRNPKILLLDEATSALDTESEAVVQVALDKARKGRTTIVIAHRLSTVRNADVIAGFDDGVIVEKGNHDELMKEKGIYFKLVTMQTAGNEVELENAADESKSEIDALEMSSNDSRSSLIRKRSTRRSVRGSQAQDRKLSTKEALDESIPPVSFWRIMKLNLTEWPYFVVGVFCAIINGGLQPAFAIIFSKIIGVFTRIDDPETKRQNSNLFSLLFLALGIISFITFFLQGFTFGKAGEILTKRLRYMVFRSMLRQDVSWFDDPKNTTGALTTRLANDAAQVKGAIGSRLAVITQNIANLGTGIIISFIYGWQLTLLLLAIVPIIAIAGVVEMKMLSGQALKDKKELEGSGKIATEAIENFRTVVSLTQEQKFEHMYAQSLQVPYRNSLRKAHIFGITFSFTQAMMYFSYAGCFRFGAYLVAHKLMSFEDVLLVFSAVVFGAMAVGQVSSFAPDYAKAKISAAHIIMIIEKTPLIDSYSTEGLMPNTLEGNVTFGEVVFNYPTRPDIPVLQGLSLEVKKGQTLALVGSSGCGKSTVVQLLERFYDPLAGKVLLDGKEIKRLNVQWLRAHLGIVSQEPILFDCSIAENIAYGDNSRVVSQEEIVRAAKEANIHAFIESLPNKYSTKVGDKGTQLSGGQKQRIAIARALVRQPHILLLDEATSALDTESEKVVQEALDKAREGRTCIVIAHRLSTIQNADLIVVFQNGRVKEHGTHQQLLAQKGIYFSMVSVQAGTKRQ
Experiment: P-gp ATPase activity assay (Pgp-Glo)
Type: biochemical
Conditions: 25 µM
Text: Once it was established that ATP hydrolysis is directly associated with the P-gp efflux activity, the interaction mode between selected compounds (12, 17, 18, 20, and 29) and this transporter protein was further investigated using human P-gp membranes in the ATPase activity assay (P-gp-Glo^TM) to gather insights about their interaction with P-gp activity, namely, as stimulators or inhibitors. This ATPase activity assay is based on the ATP dependence of the light-generating reaction of firefly luciferase. After incubating P-gp with ATP, the reaction is stopped, and the ATP consumption by P-gp is given by a luciferase-generated luminescent signal due to the remaining unmetabolized ATP. Thus, a greater decrease in the signal means a higher P-gp activity.
Sodium orthovanadate (Vanadate, Na3VO4) is an inhibitor of P-gp ATPase activity; thus, after treating samples with vanadate, no P-gp-dependent ATP consumption is observed. Therefore, the P-gp basal ATP consumption (basal activity) is defined as the difference between the luminescent signal of samples treated with vanadate and untreated. Consequently, the tested compounds were ranked as stimulators or inhibitors by comparing their P-gp ATPase activity with the basal activity. Verapamil (0.5 mM), a known P-gp substrate and activator of the ATPase activity of this transporter, thus causing a decrease in the percentage of luminescence of luciferase when compared with untreated samples (Figure 2), was used as control. The results are represented in Figure 2 as the difference between the luminescence of luciferase observed when treated with the compounds and with vanadate in comparison with the basal activity (100%).
The P-glycoprotein ATPase activity was determined using the Pgp-Glo^TM Assay Systems Promega kit according to the manufacturer’s instructions. Briefly, 20 µL of recombinant human P-gp membranes (1.25 mg/mL), expressing high levels of human P-gp, were incubated in 20 µL of Pgp-Glo^TM assay buffer for 5 min at 37 °C. Compounds were tested at 25 µM sodium orthovanadate (Na3VO4, 0.25 mM) as an inhibitor control, verapamil as a substrate control (0.5 mM), and DMSO at 2% as solvent control. The reaction was initiated by adding 10 µL of 25 mM MgATP and incubated at 37 °C for 40 min. The ATPase reaction was stopped, and after adding 50 µL of ATP Detection Reagent, the samples were incubated at room temperature for 20 min. The luciferase-generated luminescent signal emitted was measured in a CLARIOstar Plus plate reader (BMG Labtech, UK) at 580 nm. The % of basal P-gp activity was calculated through the ratio between the luminescence measured of the P-gp ATPase activity of each compound and the basal activity according to Equation (4).
(4) % basal P-gp activity = LumNa3VO4−Lumtreated/LumNa3VO4−Lumuntreated×100%
Figure 2 Effect of compounds 12, 17, 18, 20, 29, and verapamil (VER) on P-gp ATPase activity. The compounds are identified as P-gp substrates if they stimulate its basal activity (>100%) or as modulators when inhibiting basal activity (<100%). Compounds were tested at 25 µM and verapamil at 0.5 mM. Results were calculated as the means ± SD from experiments performed in triplicates.

SMILES	Effect on P-gp ATPase activity
CCC1CN(C)C2Cc3c([nH]c4ccccc34)C(=NN=Cc3ccc4ccccc4c3)CC1C2C(=O)OC (stereo not drawn) [Compound 18, 3-[(2″-naphthalenylmethylene)hydrazineylidene]dregamine]	inhibitors of P-gp ATPase activity
CCC1CN(C)C2Cc3c([nH]c4ccccc34)C(=NN=Cc3cc4ccccc4[nH]3)CC1C2C(=O)OC (stereo not drawn) [Compound 20, 3-[((1H-indol-2-yl)methylene)hydrazineylidene]dregamine]	inhibitors of P-gp ATPase activity
CCC1CN(C)C2Cc3c([nH]c4ccccc34)C(=NNC(=O)Nc3ccc(Br)cc3)CC1C2C(=O)OC (stereo not drawn) [Compound 29, 3-[2″-((4‴-bromophenyl)carbamoyl)hydrazineylidene]dregamine]	inhibitors of P-gp ATPase activity

Same assay, conditions: 25 µM, basal activity = 100%

SMILES	% basal P-gp activity [%]
CCC1CN(C)C2Cc3c([nH]c4ccccc34)C(=NN=Cc3ccc4ccccc4c3)CC1C2C(=O)OC (stereo not drawn) [Compound 18, 3-[(2″-naphthalenylmethylene)hydrazineylidene]dregamine]	< 100
CCC1CN(C)C2Cc3c([nH]c4ccccc34)C(=NN=Cc3cc4ccccc4[nH]3)CC1C2C(=O)OC (stereo not drawn) [Compound 20, 3-[((1H-indol-2-yl)methylene)hydrazineylidene]dregamine]	< 100
CCC1CN(C)C2Cc3c([nH]c4ccccc34)C(=NNC(=O)Nc3ccc(Br)cc3)CC1C2C(=O)OC (stereo not drawn) [Compound 29, 3-[2″-((4‴-bromophenyl)carbamoyl)hydrazineylidene]dregamine]	< 100

Test system: sensitive L5178Y mouse T-lymphoma cells (PAR)
Experiment: MTT antiproliferative assay, sensitive cells
Type: cell-based
Conditions: 72 h, mean ± SD
Procedure: as §1, §2
The assay was performed according to the previously applied experimental settings.

SMILES	IC50 [µM]
CCC1CN(C)C2Cc3c([nH]c4ccccc34)C(=NN=Cc3ccc4ccccc4c3)CC1C2C(=O)OC (stereo not drawn) [Compound 18, 3-[(2″-naphthalenylmethylene)hydrazineylidene]dregamine]	11.3 ± 0.84
CCC1CN(C)C2Cc3c([nH]c4ccccc34)C(=NN=Cc3cc4ccccc4[nH]3)CC1C2C(=O)OC (stereo not drawn) [Compound 20, 3-[((1H-indol-2-yl)methylene)hydrazineylidene]dregamine]	8.72 ± 0.53
CCC1CN(C)C2Cc3c([nH]c4ccccc34)C(=NNC(=O)Nc3ccc(Br)cc3)CC1C2C(=O)OC (stereo not drawn) [Compound 29, 3-[2″-((4‴-bromophenyl)carbamoyl)hydrazineylidene]dregamine]	6.56 ± 0.04

Test system: human ABCB1-transfected L5178Y mouse lymphoma cells
Experiment: Checkerboard combination assay with doxorubicin
Type: cell-based
Parameters: key to CI at ED50 (combination index): CI <1 synergy, =1 additive, >1 antagonism
Conditions: MDR cells
Procedure: The in vitro interactions between the compounds and the well-known antitumor drug and P-gp substrate, doxorubicin, were evaluated in a combination chemotherapy model on human ABCB1-transfected mouse T-lymphoma cells. The nature of drug–drug interactions was assessed by determination of the combination index (CI) using the Chou and Talalay method (Figure 1), and therefore evaluated as synergistic (CI < 1), additive (CI = 1), or antagonistic (CI > 1).
Doxorubicin (2 mg/mL, Teva Pharmaceuticals, Budapest, Hungary) was serially diluted horizontally in 100 µL as previously described, starting with 8.6 µM. The resistance modifier was subsequently diluted vertically in 50 µL; the starting concentration was determined based on the IC50. […] The checkerboard plates were kept for 72 h at 37 °C in a CO2 incubator, and at the end of the incubation period, the cell growth was determined by MTT staining method, as described earlier. Drug interactions were evaluated using Calcusyn software. Each dose–response curve (for individual agents as well as combinations) was fit to a linear model using the median effect equation in order to obtain the median effect value (corresponding to the IC50) and slope (m). The goodness-of-fit was assessed using the linear correlation coefficient, r, and only data from analysis with r > 0.90 were presented. The extent of interaction between drugs was expressed using the combination index, in which a CI value close to 1 indicates additivity, while a CI < 1 is defined as synergy and a CI > 1 as antagonism.

SMILES	Interaction
CCC1CN(C)C2Cc3c([nH]c4ccccc34)C(=NN=Cc3ccc4ccccc4c3)CC1C2C(=O)OC (stereo not drawn) [Compound 18, 3-[(2″-naphthalenylmethylene)hydrazineylidene]dregamine]	Strong Synergism
CCC1CN(C)C2Cc3c([nH]c4ccccc34)C(=NN=Cc3cc4ccccc4[nH]3)CC1C2C(=O)OC (stereo not drawn) [Compound 20, 3-[((1H-indol-2-yl)methylene)hydrazineylidene]dregamine]	Strong Synergism
CCC1CN(C)C2Cc3c([nH]c4ccccc34)C(=NNC(=O)Nc3ccc(Br)cc3)CC1C2C(=O)OC (stereo not drawn) [Compound 29, 3-[2″-((4‴-bromophenyl)carbamoyl)hydrazineylidene]dregamine]	Strong Synergism

Same assay, conditions: best ratio, MDR cells

SMILES	CI at ED50 (combination index)
CCC1CN(C)C2Cc3c([nH]c4ccccc34)C(=NN=Cc3ccc4ccccc4c3)CC1C2C(=O)OC (stereo not drawn) [Compound 18, 3-[(2″-naphthalenylmethylene)hydrazineylidene]dregamine]	0.285
CCC1CN(C)C2Cc3c([nH]c4ccccc34)C(=NN=Cc3cc4ccccc4[nH]3)CC1C2C(=O)OC (stereo not drawn) [Compound 20, 3-[((1H-indol-2-yl)methylene)hydrazineylidene]dregamine]	0.291
CCC1CN(C)C2Cc3c([nH]c4ccccc34)C(=NNC(=O)Nc3ccc(Br)cc3)CC1C2C(=O)OC (stereo not drawn) [Compound 29, 3-[2″-((4‴-bromophenyl)carbamoyl)hydrazineylidene]dregamine]	0.173
